According to patent publication US20090048310A1, “AGENT FOR PREVENTION/TREATMENT OF DISEASE CAUSED BY ACYCLOVIR-RESISTANT HERPESVIRUS” (ASTELLAS PHARMA INC., priority 2005, published 2009):
Like-named read-outs stand apart in the source and are kept apart here.

Legend:
[1] = tested on: ACV-resistant HSV-1 (A4-3^ACV-R strain); assay: Anti-ACV-resistant HSV-1 activity assay (plaque reduction); assay type: cell-based
Procedure: A total of from 100,000 to 150,000 cells of an African green monkey kidney cell (Vero cell) were inoculated into a 24 well plate using a growth medium (Eagle MEM (Nissui) supplemented with 10% FBS) and cultured at 37° C. for 3 to 4 days under 5% CO2 until they became a monolayer. After washing the cells with a maintenance medium, ACV-resistant HSV-1 (A4-3^ACV-R strain) which had been diluted with the maintenance medium (Eagle MEM supplemented with 2% FBS) to a viral titer of from 100 to 250 pfu/200 μl was inoculated therein in 200 μl/well portions. The plate was centrifuged at room temperature at 1500 rpm for 40 minutes and then incubated at 37° C. for 1 hour under 5% CO2 for infection with HSV-1. After washing three times with the maintenance medium, 100 μl of each test drug diluted to an appropriate concentration with the maintenance medium was added to each well. After culturing the cells at 37° C. for 3 to 4 days under 5% CO2, 10% formalin/PBS was added thereto in 200 μl/well portions, and the cells were fixed for 2 to 3 hours. The fixing liquid and culture supernatant were discarded and the plate was washed with water, and then staining was carried out for 2 to 3 minutes by adding a staining liquid (0.025% Crystal Violet) in 100 μl/well portions, and the plate was washed with water and dried at 37° C. The Vero cells infected with HSV-1 cause cell death, and plaques consisting of the dead cells are formed in the mono-layered Vero cells.

[2] = tested on: ACV-resistant VZV (Kanno-Br^ACV-R strain); assay: Anti-ACV-resistant VZV activity assay (plaque reduction); assay type: cell-based, varicella zoster virus (VZV); conditions: Human alphaherpesvirus 3, HEF, read-out: EC50, concentration which inhibits 50% of the number of plaques (Example 1)
Procedure: This assay was carried out in reference to the method described by Shigeta S. in The Journal of Infectious Diseases, 147, 3, 576-584, (1983). Specifically, 10,000 cells of human embryonic fibroblast (HEF) were inoculated into a 96 well microtiter plate using a growth medium (Eagle MEM (Nissui) supplemented with 10% (v/v) fetal bovine serum (FBS, Sigma)) and cultured at 37° C. for 4 days under 5% CO2 until they became a monolayer. […] The plate was centrifuged at room temperature at 2000 rpm for 20 minutes and then incubated at 37° C. for 3 hours under 5% CO2 for infection with VZV. After washing three times with the maintenance medium 100 μl of each test drug diluted to an appropriate concentration with the maintenance medium was added to each well. After culturing the cells at 37° C. for 3 to 4 days under 5% CO2, 10% formalin/PBS was added thereto in 100 μl/well portions, and the cells were fixed for 2 to 3 hours. The fixing liquid and culture supernatant were discarded and the plate was washed with water, and then staining was carried out for 2 to 3 minutes by adding a staining liquid (0.025% Crystal Violet) in 50 μl/well portions, and the plate was washed with water and dried at 37° C. The HEF cells infected with VZV cause cell death, and plaques consisting of the dead cells are formed in the mono-layered HEF cells.

ACV-resistant HSV-1 = ACV-resistant HSV-1 infection lethal model in nude mice; assay type: in vivo, nude mouse (CD-1(ICR)-nu/nu); conditions: 100 mg/kg oral twice a day for 15 days; for death suppressing effect (in words): 17 days after infection
Procedure: ACV-resistant HSV-1 (3×10^6 pfu) was inoculated into the peritoneal cavity of each nude mouse (CD-1(ICR)-nu/nu, […], female, Charles River Japan) to cause infection with the virus. Each compound to be tested was made into a methyl cellulose suspension and orally administered at a dose of 100 mg/kg, twice a day for 15 days starting 1 hour after the infection (from 0 to 14 days after the infection).
During 17 days after the infection, death of the mice caused by ACV-resistant HSV-1 infection was observed every day, and the number of survived animals was counted.

HSV-1 strain WT-51 = assay: Cutaneous HSV-1 infection mouse model; assay type: in vivo, HR-1 hairless mouse; conditions: oral, methyl cellulose suspension, 10 mg/kg twice a day for 5 days, scores for 17 days
Procedure: Using a cutaneous HSV-1 infection mouse model prepared in reference to the method of H. Machida et al. (Antiviral Res., 1992, 17, 133-143), the in vivo […] of the compounds of the present invention was tested using an animal model. The skin of each HR-1 hairless mouse [female, 7 weeks of age] was scratched lengthwise and breadthwise several times using a needle and a virus suspension (HSV-1 strain WT-51, 1.5×10^4 PFU/15 μl) was dropped to the scarified region for infection, while anesthetized with diethyl ether.
Tested compounds were administered orally as a methyl cellulose suspension, except for compounds marked with asterisk which were dissolved in 20% Cremophor EL (Nacalai Tesque)/20% polyethylene glycol (PEG) 400/60% H2O solution, starting at 3 hours after the infection, and then at a dose of 10 mg/kg twice a day for 5 days. The symptom of the skin lesion caused by HSV-1 infection were classified in the following scores for 17 days:
Score 0: no signs of infection.
Score 1: localized, barely perceptible small vesicles.
Score 2: slight vesicle spread.
Score 3: large patches of vesicles formed.
Score 4: zosteriform vesicles.
Score 5: large patches of ulcers formed.
Score 6: zosteriform with severe large ulcers.
Score 7: hind limb paralysis or death.
The AUC value was calculated from each group's mean disease score, and the disease inhibitory rate of the group administered with each test compound to the placebo group was calculated using the AUC.

[3] = Human alphaherpesvirus 1, Vero, read-out: EC50, concentration which inhibits 50% of the number of plaques (Example 2), ACV-resistant HSV-1 A4-3 ACV-R strain in Vero cells

Structure (SMILES)	EC50 [1, 3] [nM]	EC50 [2] [nM]	death suppressing effect (in words) (ACV-resistant HSV-1)	The number of survived animals (n = 10) (ACV-resistant HSV-1; day 0 after infection)	The number of survived animals (n = 10) (ACV-resistant HSV-1; day 1 after infection)	The number of survived animals (n = 10) (ACV-resistant HSV-1; day 2 after infection)	The number of survived animals (n = 10) (ACV-resistant HSV-1; day 4 after infection)	The number of survived animals (n = 10) (ACV-resistant HSV-1; day 5 after infection)	The number of survived animals (n = 10) (ACV-resistant HSV-1; day 6 after infection)	The number of survived animals (n = 10) (ACV-resistant HSV-1; day 7 after infection)	The number of survived animals (n = 10) (ACV-resistant HSV-1; day 8 after infection)	The number of survived animals (n = 10) (ACV-resistant HSV-1; day 9 after infection)	The number of survived animals (n = 10) (ACV-resistant HSV-1; day 10 after infection)	The number of survived animals (n = 10) (ACV-resistant HSV-1; day 11 after infection)	The number of survived animals (n = 10) (ACV-resistant HSV-1; day 12 after infection)	The number of survived animals (n = 10) (ACV-resistant HSV-1; day 14 after infection)	The number of survived animals (n = 10) (ACV-resistant HSV-1; day 16 after infection)	The number of survived animals (n = 10) (ACV-resistant HSV-1; day 17 after infection)	Inhibition ratio (%) (disease inhibitory rate vs placebo from AUC of mean disease score) (HSV-1 strain WT-51)	other results
Cc1cccc(C)c1N(CC(=O)Nc1ccc(-c2ncon2)cc1)C(=O)C1CCS(=O)(=O)CC1 [Preparation 27, N-(2,6-dimethylphenyl)-N-(2-{[4-(1,2,4-oxadiazol-3-yl)phenyl]amino}-2-oxoethyl)tetrahydro-2H-thiopyran-4-carboxamide 1,1-dioxide]	68	82	completely suppressed death of the mice	10	10	10	10	10	10	10	10	10	10	10	10	10	10	10	–	–
Nc1nc2c(ncn2COCCO)c(=O)[nH]1 [ACV, acyclovir]	68000	–	–	–	–	–	–	–	–	–	–	–	–	–	–	–	–	–	–	EC50 ([1]; read-out: EC50, concentration which inhibits 50% of the number of plaques (Example 2), ACV-resistant HSV-1 A4-3 ACV-R strain in Vero cells): 120000 nM
Cc1ccc(N(CC(=O)Nc2ccc(-c3cocn3)cc2)C(=O)C2CCS(=O)(=O)CC2)cc1 [Preparation 2, N-(4-methylphenyl)-N-(2-{[4-(1,3-oxazol-4-yl)phenyl]amino}-2-oxoethyl)tetrahydro-2H-thiopyran-4-carboxamide 1,1-dioxide]	35	35	completely suppressed death of the mice	10	10	10	10	10	10	10	10	10	10	10	10	10	10	10	–	–
Cc1ccc(N(CC(=O)Nc2ccc(-c3ncon3)cc2)C(=O)C2CCS(=O)(=O)CC2)cc1F [Preparation 35, N-(3-fluoro-4-methylphenyl)-N-(2-{[4-(1,2,4-oxadiazol-3-yl)phenyl]amino}-2-oxoethyl)tetrahydro-2H-thiopyran-4-carboxamide 1,1-dioxide]	–	–	–	–	–	–	–	–	–	–	–	–	–	–	–	–	–	–	82	–
Cc1ccccc1N(CC(=O)Nc1ccc(-c2cocn2)cc1)C(=O)C1CCS(=O)(=O)CC1 [Preparation 4, N-(2-methylphenyl)-N-(2-{[4-(1,3-oxazol-4-yl)phenyl]amino}-2-oxoethyl)tetrahydro-2H-thiopyran-4-carboxamide 1,1-dioxide]	–	–	–	–	–	–	–	–	–	–	–	–	–	–	–	–	–	–	77	–
Cc1c(F)cc(N(CC(=O)Nc2ccc(-c3cocn3)cc2)C(=O)C2CCS(=O)(=O)CC2)cc1F [Preparation 19, N-(3,5-difluoro-4-methylphenyl)-N-(2-{[4-(1,3-oxazol-4-yl)phenyl]amino}-2-oxoethyl)tetrahydro-2H-thiopyran-4-carboxamide 1,1-dioxide]	–	–	–	–	–	–	–	–	–	–	–	–	–	–	–	–	–	–	71	–
